Data on 4 compounds can be found in patent US8450479B2, “3-substituted-4-oxo-3,4-dihydro-imidazo[5,1-d][1,2,3,5-tetrazine-8-carboxylic acid amides and their use” (Pharminox Limited, priority 2007, dated 2013).

Test in all cases: MTT assay for 7-day toxicity assay
Common to all, as to type: cell-based

Assay [1] relates to Colon HT29 (MMR proficient). The note with it: Homo sapiens, HT-29, 168 h, Colon HT29 (MMR proficient); 7-day MTT; single determinations; read-out: GI50. On the procedure: (§1) The cell culture techniques were carried out in a Class II microbiological safety cabinet which was swabbed with 70% IMS in distilled water before each use. Glioma cells were routinely cultured in Costar tissue culture flasks in RPMI 1640 liquid medium (containing 0.3 g/L L-glutamine and 2 g/L sodium bicarbonate) supplemented with 10% heat inactivated FBS (55-59° C.) for 1 hour to denature complement proteins which would otherwise evoke a cellular immune response resulting in cell lysis, 1% non-essential amino acids, 50 μg/mL gentamicin and 400 μg/mL G418 (vector selected reagent). Colorectal and melanoma cells were maintained in RPMI 1640 supplemented with 10% FBS. MRC-5 cells were cultured in EMEM. Cells were grown in a humidified incubator containing 5% CO2 at 37° C. Cells were sub-cultured when growth exceeded approximately 80% confluence, normally twice weekly. The medium was aspirated from the flask and approximately 0.8 mL trypsin-EDTA 1× solution added. The cells were re-incubated at 37° C. until they visibly detached from the flask. The cell suspension was then re-suspended in 5 mL medium and 0.5-1 mL of the cell suspension was transferred to a new flask (25 cm^2) with 7 mL culture medium. The cells were further incubated at 37° C. incubator. Cells were disposed after passage nearly 30 times in order to minimize phenotypic drift. New batches of cells were taken from liquid nitrogen storage by thawing rapidly (37° C. water bath) and re-suspension in a 25 cm^2 flask with 10 mL of culture medium. Two passages were allowed to resume normal growth. For long-term maintenance, viable cells at 60-80% confluence were detached by minimum amount of trypsin/EDTA and re-suspended in sterile filtered freezing medium (95% FBS, 5% DMSO), transferred to sterile cryogenic vials, and frozen overnight at −20° C. followed by −80° C. for 1-2 days and stored in liquid nitrogen for long term storage.
(§2) Most test compounds, including temozolomide, were prepared as stock solution (100 mM) in DMSO and stored at −20° C. for not more than 6 months.
(§3) This assay was first described in Mosmann, T., 1983, “Rapid colorimetric assay for cellular growth and survival: Application to proliferation and cytotoxicity assays”, Journal of Immunological Methods, Vol. 65, Nos. 1-2, pp. 55-63.
(§4) Glioma cell lines, SNB19 and U373, both MGMT transfected (i.e., SNB19M and U373M) and vector controls (i.e., SNB19V and U373V); colorectal carcinoma cell lines, HCT116, HT29, and DLD1; melanoma cell line, SKMEL-28; breast cell line, MCF-7; and normal human fetal lung fibroblast cell line, MRC-5; were harvested at 60-80% confluence—during the logarithmic phase of growth.
(§5) Following harvesting, cells in suspension were gently syringed through a 23 gauge needle to obtain a near-single cell suspension. The desired cell seeding densities were used and added into 96-well plates in 180 μL culture medium if only one test compound was to be added, or 160 μL if two test compounds were to be added in combination, which were allowed to attach at 37° C. (5% CO2) overnight. For the 7 day assay, the cell seeding density for different cell lines was as follows: SNB19V, SNB19M: 650 cells/well; U373V, U373M: 650 cells/well; SNB19VR, U373VR: 650 cells/well; HCT116, DLD-1, SKMEL-28, MRC-5, MCF-7: 400 cells/well.
(§6) The two peripheral lanes were used as blank wells (cell free) and filled with 200 μL of medium in order to minimise medium evaporation from the plate. A separate time zero (T0) plate was set up alongside other plates. Serial dilutions in tissue culture medium of a 100 mM stock of test compound in DMSO were prepared immediately before each assay to ten times the final concentrations required, and then 20 μL was added to each well (200 μL total media per well) to achieve final concentrations of 0.5 μM, 1 μM, 5 μM, 10 μM, 50 μM, 100 μM, 500 μM, and 1000 μM. A minimum of four wells received the same test compound concentration. […]

In assay [2] the test system is Melanoma SKMEL-28 (MMR proficient). The following applies: Homo sapiens, SK-MEL-28, 168 h, Melanoma SKMEL-28 (MMR proficient); 7-day MTT; single determinations; read-out: GI50. On the procedure: as §1, §2, §3, §4, §5, §6
Assay [3] has as its system Colon HCT116 (MMR mutated). The following applies: Colon HCT116 (MMR mutated), 7-day MTT, single determinations, read-out: GI50. The procedure: as §1, §2, §3, §4, §5, §6
A further assay deals with Glioma U373M (MGMT+). The note with it: Glioma U373M (MGMT+), 7-day MTT, single determinations. The procedure: as §1, with “Glioma cells were routinely cultured in Costar tissue culture flasks in RPMI 1640 liquid medium (containing 0.3 g/L L-glutamine and 2 g/L sodium bicarbonate) supplemented with 10% heat inactivated FBS (55-59° C.) for 1 hour to denature complement proteins which would otherwise evoke a cellular immune response resulting in cell lysis, 1% non-essential amino acids, 50 μg/mL gentamicin and 400 μg/mL G418 (vector selected reagent). Colorectal and melanoma cells were maintained in RPMI 1640 supplemented with 10% FBS.” left out
as §2, §4, §5
(§7) The two peripheral lanes were used as blank wells (cell free) and filled with 200 μL of medium in order to minimise medium evaporation from the plate. A separate time zero (T0) plate was set up alongside other plates. Serial dilutions in tissue culture medium of a 100 mM stock of test compound in DMSO were prepared immediately before each assay to ten times the final concentrations required, and then 20 μL was added to each well (200 μL total media per well) to achieve final concentrations of 0.5 μM, 1 μM, 5 μM, 10 μM, 50 μM, 100 μM, 500 μM, and 1000 μM. A minimum of four wells received the same test compound concentration. To control wells, including those in the T0 plate, 20 μL of medium was added. […] A separate plate treated in the same way, but free of test compound, was used as a measure of cell viability at the time of drug addition (day 0).
(§8) After incubation at 37° C., 5% CO2 for 7 days (or immediately for the day 0 plate), cell viability was quantified using the MTT assay. 50 μL of sterile filtered MIT (3-(4,5-dimethylthiazol-2-yl)-2,5-diphenyltetrazolium bromide) (2 mg/mL in phosphate buffered saline) were added to each well (final concentration 0.4 mg/mL) and the plates were re-incubated for 4 hours to allow metabolic conversion of MTT by dehydrogenases in viable cells to insoluble formazan crystals.
(§9) The intensity of absorbance is directly proportional to cell viability.

In a further assay the test system is Glioma SNB19V (MGMT−). The following applies: Glioma SNB19V (MGMT−), 7-day MTT, single determinations. The procedure: as §1, with “Glioma cells were routinely cultured in Costar tissue culture flasks in RPMI 1640 liquid medium (containing 0.3 g/L L-glutamine and 2 g/L sodium bicarbonate) supplemented with 10% heat inactivated FBS (55-59° C.) for 1 hour to denature complement proteins which would otherwise evoke a cellular immune response resulting in cell lysis, 1% non-essential amino acids, 50 μg/mL gentamicin and 400 μg/mL G418 (vector selected reagent). Colorectal and melanoma cells were maintained in RPMI 1640 supplemented with 10% FBS.” left out
as §2, §4, §5, §7, §8, §9

The subject of another assay is Glioma U373V (MGMT low). The note with it: Glioma U373V (MGMT low), 7-day MTT, single determinations. The procedure: as §1, with “Glioma cells were routinely cultured in Costar tissue culture flasks in RPMI 1640 liquid medium (containing 0.3 g/L L-glutamine and 2 g/L sodium bicarbonate) supplemented with 10% heat inactivated FBS (55-59° C.) for 1 hour to denature complement proteins which would otherwise evoke a cellular immune response resulting in cell lysis, 1% non-essential amino acids, 50 μg/mL gentamicin and 400 μg/mL G418 (vector selected reagent). Colorectal and melanoma cells were maintained in RPMI 1640 supplemented with 10% FBS.” left out
as §2, §4, §5, §7, §8, §9

A further assay has as its system Glioma SNB19M (MGMT+). The following applies: Glioma SNB19M (MGMT+), 7-day MTT, single determinations. The procedure: as §1, with “Glioma cells were routinely cultured in Costar tissue culture flasks in RPMI 1640 liquid medium (containing 0.3 g/L L-glutamine and 2 g/L sodium bicarbonate) supplemented with 10% heat inactivated FBS (55-59° C.) for 1 hour to denature complement proteins which would otherwise evoke a cellular immune response resulting in cell lysis, 1% non-essential amino acids, 50 μg/mL gentamicin and 400 μg/mL G418 (vector selected reagent). Colorectal and melanoma cells were maintained in RPMI 1640 supplemented with 10% FBS.” left out
as §2, §4, §5, §7, §8, §9

Another assay has as its system Colon DLD1. The following applies: Homo sapiens, DLD-1, 168 h; Colon DLD1; 7-day MTT; single determinations; read-out: GI50. On the procedure: as §1, §2, §3, §4, §5, §6
Assay [4] has as its system Normal Human Fetal Lung Fibroblast MRC-5. The note with it: Normal Human Fetal Lung Fibroblast MRC-5, 7-day MTT, single determinations, read-out: GI50. The procedure: as §1, §2, §3, §4, §5, §6
For assay [5], the system named is Glioma SNB19VR (MGMT−) (TMZ resistant). The note with it: Glioma SNB19VR (MGMT−, TMZ resistant), 7-day MTT, single determinations, read-out: GI50. The procedure: as §1, §2, §3, §4, §5, §6

Values joined by “and” are separate entries in the source; they are usually repeats but may differ in a detail not shown here. Equal entries are not always repeated. Where two headings read alike, the source gives them in different places.

For the compound `COc1cc(Cn2nnc3c(C(N)=O)ncn3c2=O)cc(OC)c1OC` [AA-002, 4-Oxo-3-(3,4,5-trimethoxybenzyl)-3,4-dihydroimidazo[5,1-d][1,2,3,5]tetrazine-8-carboxamide], the GI50 in [1] is 128 µM; in assay [2] it was 293 µM; in assay [3] (Homo sapiens, HCT-116, 168 h), 393 µM.
As for `C[C@@H](c1ccccc1)n1nnc2c(C(N)=O)ncn2c1=O` [BB-002, (S)-3-(−1-Phenylethyl)-8-carbamoylimidazotetrazin-4-one], the GI50 in assay [1] stood at 243 µM; in [2] it was 222 µM; in [3] (Homo sapiens, HCT-116, 168 h), 206 µM; in the assay with Glioma U373M (MGMT+) (168 h), 69.6 µM; in the assay with Glioma U373M (MGMT+), 95 µM; in the assay on Glioma SNB19V (MGMT−) (168 h), 35.3 µM. For the same compound, the GI50 in the assay with Glioma SNB19V (MGMT−) is 34.1 µM; with Glioma U373V (MGMT low) (168 h), 61.6 µM; in the assay on Glioma U373V (MGMT low), 70.7 µM; with Glioma SNB19M (MGMT+) (168 h), 41.2 µM; with Glioma SNB19M (MGMT+), 49.7 µM.
`NC(=O)c1ncn2c(=O)n(CCc3ccccc3)nnc12` [DD-001, 4-oxo-3-phenethyl-3,4-dihydroimidazo[5,1-d][1,2,3,5]tetrazine-8-carboxamide]: the GI50 in assay [1] is 498 µM; with Colon DLD1, 385 µM; in assay [2], 424 µM; in [3] (Homo sapiens, HCT-116, 168 h), 302 µM; in the assay with Glioma SNB19V (MGMT−) (168 h), 77 µM; in the assay with Glioma SNB19V (MGMT−), 128 µM and 91.1 µM. Also, the GI50 with Glioma SNB19M (MGMT+) (168 h) is 95 µM; in the assay on Glioma SNB19M (MGMT+), 70.2 µM and 92.6 µM.
In the case of `NC(=O)c1ncn2c(=O)n(Cc3ccco3)nnc12` [PX-004], the GI50 in [4] (Homo sapiens, MRC5, 168 h) turned out to be 60.3 µM; in assay [4] it was 55.5 µM; in [1], 27.2 µM; in the assay with Colon DLD1, 45.4 µM; in assay [2] it was 53.4 µM; in assay [3], 55.6 µM. Moreover, the GI50 was determined as 70.9 µM in assay [3] (Homo sapiens, HCT-116, 168 h); 50.1 µM in assay [5] (168 h); 52.5 µM in assay [5].
